# Source: patent EP1056700B1, “MEDICINAL USES OF PHENYLALKANOLS AND DERIVATES” (ZingoTX Pty Ltd, priority 1997, dated 1999)
# Experiments:
# [1] = target: T1, SR Ca^2+-ATPase (Canis lupus familiaris, UniProt O46674); assay: Sarcoplasmic reticulum Ca^2+-ATPase assay; assay type: biochemical, dog; conditions: for SR Ca^2+-ATPase Activity: 0 µM = 100, dog cardiac SR; for IC50: read-out: SR Ca^2+-ATPase IC50 = conc. for 50% inhibition
# T1 construct: Effect of gingerols and their derivatives on the Ca^2+-ATPase activity of dog cardiac SR; from tissue; host or cells: dog heart (cardiac sarcoplasmic reticulum)
# T1 sequence (O46674 whole entry): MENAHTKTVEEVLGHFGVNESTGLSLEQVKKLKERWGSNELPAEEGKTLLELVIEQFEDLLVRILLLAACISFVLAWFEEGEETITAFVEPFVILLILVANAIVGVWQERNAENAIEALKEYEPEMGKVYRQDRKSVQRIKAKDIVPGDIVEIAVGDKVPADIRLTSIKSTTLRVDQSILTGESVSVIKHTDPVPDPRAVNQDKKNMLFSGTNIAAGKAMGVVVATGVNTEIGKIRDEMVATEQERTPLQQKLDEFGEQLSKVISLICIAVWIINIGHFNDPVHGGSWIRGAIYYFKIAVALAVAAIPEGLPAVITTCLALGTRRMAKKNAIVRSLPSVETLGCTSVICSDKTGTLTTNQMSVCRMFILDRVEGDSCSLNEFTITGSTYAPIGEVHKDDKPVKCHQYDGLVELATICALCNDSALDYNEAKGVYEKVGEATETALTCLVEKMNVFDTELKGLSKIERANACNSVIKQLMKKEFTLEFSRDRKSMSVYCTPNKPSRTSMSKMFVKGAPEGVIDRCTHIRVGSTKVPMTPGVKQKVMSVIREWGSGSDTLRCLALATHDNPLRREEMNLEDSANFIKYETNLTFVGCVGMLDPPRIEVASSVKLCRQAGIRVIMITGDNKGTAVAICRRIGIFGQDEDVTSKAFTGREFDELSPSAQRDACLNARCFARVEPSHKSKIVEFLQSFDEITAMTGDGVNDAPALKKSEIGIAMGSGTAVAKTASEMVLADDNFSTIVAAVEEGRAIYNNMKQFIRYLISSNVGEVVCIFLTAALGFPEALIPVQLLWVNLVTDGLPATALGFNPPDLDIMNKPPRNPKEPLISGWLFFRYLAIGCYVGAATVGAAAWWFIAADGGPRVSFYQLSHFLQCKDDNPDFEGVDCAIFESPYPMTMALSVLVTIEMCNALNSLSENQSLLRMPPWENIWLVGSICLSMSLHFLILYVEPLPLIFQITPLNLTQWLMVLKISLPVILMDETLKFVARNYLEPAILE
# Procedure: A portion at each concentration (54 µl) was aliquoted into 4 designated wells of the microplate (two of four wells were controls). Each well was mixed with ATP solution (20 mM, 6 µl), except the controls, using an 8 channel pipette. The controls were assayed in the absence of ATP or calcium.
# The plate was incubated with the lid on, for 30 min at 37°C, colour reagent (160 µl) was then added and mixed with citrate solution (34%, 30 µl). The plate was developed at room temperature for 30 min then absorbance at 655 nm was read from the microplate reader. The Ca^2+-ATPase activity was quantitated, from a Pi standard curve, as concentration of liberated inorganic phosphate.
# Stock solutions (10 mM) of test substance were prepared in DMSO, then series dilutions were made either in DMSO or in 1M HEPES to produce the dose-response concentrations. The maximum concentration of DMSO in the final assay solution was 2.5%.
# Each concentration of test substance was assayed in duplicate in the presence and absence of ATP or calcium. Phosphate standards are run on each plate as follows:
# Effect of gingerols and their derivatives on the Ca^2+-ATPase activity of dog cardiac SR.
# [2] = tested on: guinea pig atria; assay: Organ bath assay on isolated guinea pig atria (rate and force of contraction); conditions: guinea pig atria; for HEART RATE / FORCE OF CONTRACT^n: result in words
# In short: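 Test substances (DMSO, final 2.5 %) applied up to a maximum of 50 µM. Preparation: isolated atria of young (3-4 wk) male guinea pigs under 1 g resting tension in carbogen-oxygenated Krebs-Henseleit, baseline stable 20 min. Read-outs: beating rate and contractile force.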
# [3] = tested on: DRG neuronal cells; assay: Peak [Ca^2+]i transients in cultured dorsal root ganglion neurons (Fura-2); assay type: cell-based, rat; conditions: 10 µM applied for 1 min, 2 mM Ca^2+
# Procedure: DRG from neonatal (3-5 days old) rat or adult Sprague-Dawley rats were incubated in Hanks CMF saline with 0.05% collagenase and 0.25% trypsin for 25 min at 37° C. Individual cells were obtained by trituration with fire polished Pasteur pipettes of diminishing diameters. Neurones were isolated from the cell suspension in 30% Percoll and then plated on collagen coated coverslips or in 24-well plates, then cultured in neurobasal medium with B27 supplement, 50 ng/ml 2.5 S nerve growth factor, 2 mM 1-glutamine and 100 U/ml penicillin/streptomycin. Cultures were maintained at 37° C with 5% CO2. 30% Percoll increases the percentage of capsaicin-sensitive DRG neurones up to 70%. For peak [Ca^2+]i transients measurements, cells on coverslips were incubated with 5 µM Fura-2 AM for 30 min at 37° C. The coverslips were then mounted on a chamber attached to a fast sample application perfusion system which allows changing solutions in the second range. Recordings were made on the stage of a Nikon Diaphot inverted microscope fitted with a Nikon 40 x Fluo (NA 0.85) DL Ph3 or 40 x Fluo (NA 1.3) oil objective. [Ca^2+]i was calculated from dual excitation wavelength (340/380 nm) fluorescence measurements following an intracellular calibration procedure by the Grynkiewicz equation, using MCID M2/M4 v.3.0 (Imaging Res. Inc.) software. Cells were continuously perfused with a solution consisting of 140 mM NaCl, 2 mM CaCl2, 5 mM KCl, 20 mM HEPES, 10 mM glucose, pH 7.4. To study KCl evoked depolarisation, 50 mM NaCl was replaced by equimolar KCl. Cytoplasmic localisation of Fura-2 was tested with the Mn^2+ quenching technique (Dedov and Roufogalis, 1998). All experiments were performed at room temperature (20-23°C).
# Typical changes in [Ca^2+]i upon depolarisation were evoked by 50 mM KCl and by application of 1 µM capsaicin; both were applied for 30 sec. Capsaicin-evoked peak [Ca^2+]i transients are characterised by a fast rise and long-steady state [Ca^2+]i clearance from the cytoplasm. In capsaicin-sensitive cells the half-time of cytoplasmic Ca^2+ clearance was proportional to the amplitudes of peak [Ca^2+]i transients.
# To examine the effect of gingerol derivatives, one or several compounds in succession at a concentration of 10 µM were applied for 1 min to the DRG neuronal cells followed by washing out for 4 min with physiological solution. To the capsaicin-sensitive cells, 10 µM capsaicin and 50 mM KCl were applied, respectively, to confirm the viability of the cells. In addition, morphological appearances of the cells were also examined at the end of experiment. […]
# [4] = tested on: rat mesenteric artery; assay: Vasodilation on rat mesenteric small arteries; conditions: for EC50: Rattus norvegicus, relaxation of small arteries (200-300 µm) precontracted with endothelin; for relaxation of rat mesenteric artery: result in words
# From the text: Small arteries (200-300 µm in diameter) isolated from rat mesentery were precontracted with endothelin prior to addition of the test substances and tested for relaxation.
# [5] = tested on: Platelet rich plasma; assay: Platelet aggregation: [^3H]-serotonin release from platelet rich plasma, arachidonic acid initiated; assay type: cell-based; conditions: Homo sapiens, activation by EC50 concentration of arachidonic acid
# Procedure: Blood was collected from healthy volunteers who had taken no medication in the previous two weeks. The anticoagulant used was 3.8 % trisodium citrate. Platelet rich plasma was prepared and incubated with [^3H]-serotonin. This was followed by addition of gingerol analogues. Platelet activation was initiated using the EC50 concentration for arachidonic acid. The percentage of [^3H]-serotonin release was measured using a liquid scintillation counter. Then, dose-response curves were established and IC50 values were obtained.
SMILES,SR Ca^2+-ATPase Activity ([1]; 5 µM),SR Ca^2+-ATPase Activity ([1]; 10 µM),SR Ca^2+-ATPase Activity ([1]; 25 µM),SR Ca^2+-ATPase Activity ([1]; 50 µM),IC50 [1],HEART RATE [2],Number of capsaicin-sensitive cells responding [3],Peak [Ca^2+]i (Average ±SD) [3],SR Ca^2+-ATPase Activity ([1]; 1 µM),SR Ca^2+-ATPase ↑ increase or stimulation ([1]; @ 50 µM),IC50 [5],FORCE OF CONTRACT^n [2],other results
CCCCCCCC(O)CCCCc1ccc(O)c(OC)c1 (stereo not shown) [1-(4-hydroxy-3-methoxyphenyl)dodecan-5-ol],113,136,158,126,~25 µM,↑weakly,0 out of 5,0 nM,,,,,SR Ca^2+-ATPase Activity ([1]; 100 µM): 87; SR Ca^2+-ATPase Activity ([1]; 200 µM): 18; SR Ca^2+-ATPase ↑ increase or stimulation ([1]; @ 25 µM): ↑57% @ 25; FORCE OF CONTRACT^n ↑ increase ([2]; @ 30 (µM)): ↑79% @ 30
CCCCCCCC(=O)CC(O)CCc1ccc(O)c(OC)c1 (stereo not shown) [3-hydroxy-1-(4-hydroxy-3-methoxyphenyl)dodecan-5-one],,,,,> 100 µM,,5,167 ± 105 nM,,,,,FORCE OF CONTRACT^n ↑ increase ([2]; @ 5 (µM)): ↑270% @ 5; FORCE OF CONTRACT^n ↑ increase ([2]; @ 10 (µM)): ↑130% @ 10; HEART RATE ↑ increase ([2]; @ 10 (µM)): ↑30% @ 10; EC50 [4]: 0.04 µM; relaxation of rat mesenteric artery [4]: showed potency
"CCCCCCCC(O)CC(=O)CCc1ccc2c(c1)OCO2 (stereo not shown) [5-hydroxy-1-(3,4-methylenedioxyphenyl)dodecan-3-one]",,,,,,,2,225 ± 78 nM,,,,,EC50 [4]: 0.69 µM; relaxation of rat mesenteric artery [4]: showed potency
"CCCCCC(O)CC(=O)CCc1ccc(O)c(OC)c1 (stereo not shown) [[6]-gingerol, 5-hydroxy-1-(4-hydroxy-3-methoxyphenyl)decan-3-one, reference compound]",120,117,137,160,> 100 µM,,,,121,↑60% @ 50,73.8 ± 6.6 µM,,FORCE OF CONTRACT^n ↑ increase ([2]; @ 50 (µM)): ↑86% @ 50; HEART RATE ↑ increase ([2]; @ 50 (µM)): ↑10% @ 50
"CCCCCCCC(O)CC(=O)C=Cc1ccc(O)c(OC)c1 (stereo not shown) [[8]-dehydrogingerol, 5-hydroxy-1-(4-hydroxy-3-methoxyphenyl)dodecan-1-ene-3-one, reference compound]",88,92,95,65,~50 µM,,,,93,,,,"inhibition at 50 µM ([1]; @ 50 µM, read-out: SR Ca^2+-ATPase ↓ decrease or inhibition): 35%; FORCE OF CONTRACT^n ↑ increase ([2]; @ 25 (µM)): ↑80% @ 25; HEART RATE ↑ increase ([2]; @ 25 (µM)): ↑17% @ 25; time for tension to reach maximum after addition of a dose [2]: a few mins"
"CCCCCCCC(O)CC(=O)CCc1ccc(O)cc1 (stereo not shown) [[8]-demethoxygingerol, 5-hydroxy-1-(4-hydroxyphenyl)dodecan-3-one]",,,,,> 100 µM,inactive,2,243 ± 71 nM,,↑60% @ 50,,inactive,
"CCCCCCCC(O)CC(O)CCc1ccc(O)c(OC)c1 (stereo not shown) [[8]-gingerdiol, 1-(4-hydroxy-3-methoxyphenyl)dodecane-3,5-diol, reference compound]",,,,,> 100 µM,inactive,2,246 ± 35 nM,,↑54% @ 50,82.6 ± 9 µM,inactive,
"CCCCCCCC(O)CC(=O)CCc1ccc(O)c(OC)c1 (stereo not shown) [[8]-gingerol, 5-hydroxy-1-(4-hydroxy-3-methoxyphenyl)dodecan-3-one, reference compound]",158,165,200,139,~100 µM,,7,279 ± 111 nM,139,,70.4 ± 3.8 µM,,SR Ca^2+-ATPase ↑ increase or stimulation ([1]; @ 25 µM): ↑100% @ 25; FORCE OF CONTRACT^n ↑ increase ([2]; @ 3 (µM)): ↑160% @ 3; HEART RATE ↑ increase ([2]; @ 3 (µM)): ↑31% @ 3; time to increased cardiac contractility after addition of the drug [2]: 15 s
"CCCCCCCC(O)CC(=O)CCc1ccc(OC)c(O)c1 (stereo not shown) [[8]-isogingerol, 5-hydroxy-1-(3-hydroxy-4-methoxyphenyl)dodecan-3-one, reference compound]",,,,,> 100 µM,inactive,2,281 ± 42 nM,,↑64% @ 50,,inactive,
"CCCCCCCC(O)CC(=O)CCc1cccc(OC)c1O (stereo not shown) [[8]-orthogingerol, 5-hydroxy-1-(2-hydroxy-3-methoxyphenyl)dodecan-3-one]",,,,,> 100 µM,inactive,2,245 ± 64 nM,,,,inactive,SR Ca^2+-ATPase ↑ increase or stimulation ([1]; @ 100 µM): ↑40% @ 100
